Data on 9 compounds can be found in patent US6444832B1, “Amino alcohol derivatives, method of producing said derivatives and medicaments containing them” (priority 1995, dated 2002).

The subject of this experiment is primary osteoblastic cells of foetal rat calvariae. Briefly: DNA synthesis assay in primary cultures of osteoblasts from fetal rat calvariae (3H-thymidine incorporation). Format: cell-based. The following applies: 1 μg/ml; 24 hours incubation, methyl-3H-thymidine during the last 3 hours; medium containing BSA control = 100%. The procedure:
Compounds of formula (I) were examined in a DNA synthesis assay in primary cultures of osteoblasts from fetal rat calvariae. The experiments were carried out in accordance with Pfeilschifter et al., Endocrinology 126, 703 (1990).
Primary osteoblasts were isolated from foetal rat calvariae by sequential digestion with collagenase. In this process 5 cell fractions were obtained. A pool from the cell fractions 3-5 were cultured in vitro. The cells were cultured in an incubator at a relative air humidity of 95%, a CO2 content of 5% and a temperature of 37° C. The test substances were examined in the cultures of the first, second or third cell passage. For the examinations the cells were sown at a cell count of 7×10^3 cells (in 100 μl culture medium)/well in microtitre plates at least 76 hours before applying the test substances. MEM Dulbecco (plus 4.5 g/l glucose plus 3.7 g/l NaHCO3 without glutamine) was used as the culture medium to which 5% foetal calf serum (FCS) and […] penicillin/streptomycin had been added. Immediately before addition of the test substances to the cell culture the medium was replaced by 150 μl medium which contained 1 mg/ml bovine serum albumin (BSA) instead of FCS. Test substances were added at the desired concentrations to the medium containing BSA. TGFβ1 (transforming growth factor β1) at concentrations of 0.1-0.2 ng/ml were also examined as a positive control. Three determinations were carried out per (positive) control or substance concentration. The cell cultures were incubated for 24 hours with test substances, a thymidine probe (1 μCi methyl-^3H-thymidine in 20 μl PBS solution) being additionally present during the last 3 hours. At the end of the incubation period the cell cultures were washed three times with 0.9% saline solution and subsequently admixed with 100 μl liquid scintillator each time (OptiPhase Supermix TM®). Afterwards the radioactivity incorporated into the DNA was measured in cpm in a liquid scintillation counter (1450 MicroBeta®). Cell cultures which had only received medium containing BSA served as controls (100%).
(In general: Uptake of a labelled nucleoside into DNA is a usual measure of proliferation.)
As for `CCCCCCCC/C=C\CCCCCCCC(=O)NC(CO)CCCC` (stereo not drawn) [Example 26], the “Rate of DNA synthesis of primary osteoblastic cells of foetal rat calvariae in percent compared to the control (=100%)” value came to 296%.

Turning to `CCCCCCCCC#CCCCCCCCC(=O)NC(CO)CCCC` (stereo not drawn) [Example 20], the “Rate of DNA synthesis of primary osteoblastic cells of foetal rat calvariae in percent compared to the control (=100%)” value is 250%.

`CCCCCCCC/C=C/CCCCCCCC(=O)NC(CO)CCCC` (stereo not drawn) [Example 21]: the “Rate of DNA synthesis of primary osteoblastic cells of foetal rat calvariae in percent compared to the control (=100%)” value was 188%.

Regarding `CCCCCC/C=C\CCCCCCCC(=O)NC(CO)CCCC` (stereo not drawn) [Example 11], the “Rate of DNA synthesis of primary osteoblastic cells of foetal rat calvariae in percent compared to the control (=100%)” value worked out at 191%.

In the case of `CCCCC/C=C\C/C=C\CCCCCCCC(=O)N[C@@H](CO)CCCC` (stereo in doubt) [Example 10], the “Rate of DNA synthesis of primary osteoblastic cells of foetal rat calvariae in percent compared to the control (=100%)” value amounted to 475%.

`CCCCC/C=C\C/C=C\CCCCCCCC(=O)NC(CO)CCCC` (stereo not drawn) [Example 24]: the “Rate of DNA synthesis of primary osteoblastic cells of foetal rat calvariae in percent compared to the control (=100%)” value is recorded as 223%.

For the compound `CC/C=C\C/C=C\C/C=C\CCCCCCCC(=O)N[C@@H](CO)CCCC` (stereo in doubt) [Example 9], the “Rate of DNA synthesis of primary osteoblastic cells of foetal rat calvariae in percent compared to the control (=100%)” value is 367%.

In the case of `CCCCC/C=C\C/C=C\CCCCCCCC(=O)N[C@H](CC)CO` (stereo in doubt) [Example 27], the “Rate of DNA synthesis of primary osteoblastic cells of foetal rat calvariae in percent compared to the control (=100%)” value was determined as 252%.

`CCCC/C=C\CCCCCCCC(=O)NC(CO)CCCC` (stereo not drawn) [Example 19]: the “Rate of DNA synthesis of primary osteoblastic cells of foetal rat calvariae in percent compared to the control (=100%)” value is listed as 298%.
